The experiment addresses T1, 3',5'-cyclic-AMP phosphodiesterase 4D (Rattus norvegicus, UniProt P14270).
T1 sequence (P14270 whole entry): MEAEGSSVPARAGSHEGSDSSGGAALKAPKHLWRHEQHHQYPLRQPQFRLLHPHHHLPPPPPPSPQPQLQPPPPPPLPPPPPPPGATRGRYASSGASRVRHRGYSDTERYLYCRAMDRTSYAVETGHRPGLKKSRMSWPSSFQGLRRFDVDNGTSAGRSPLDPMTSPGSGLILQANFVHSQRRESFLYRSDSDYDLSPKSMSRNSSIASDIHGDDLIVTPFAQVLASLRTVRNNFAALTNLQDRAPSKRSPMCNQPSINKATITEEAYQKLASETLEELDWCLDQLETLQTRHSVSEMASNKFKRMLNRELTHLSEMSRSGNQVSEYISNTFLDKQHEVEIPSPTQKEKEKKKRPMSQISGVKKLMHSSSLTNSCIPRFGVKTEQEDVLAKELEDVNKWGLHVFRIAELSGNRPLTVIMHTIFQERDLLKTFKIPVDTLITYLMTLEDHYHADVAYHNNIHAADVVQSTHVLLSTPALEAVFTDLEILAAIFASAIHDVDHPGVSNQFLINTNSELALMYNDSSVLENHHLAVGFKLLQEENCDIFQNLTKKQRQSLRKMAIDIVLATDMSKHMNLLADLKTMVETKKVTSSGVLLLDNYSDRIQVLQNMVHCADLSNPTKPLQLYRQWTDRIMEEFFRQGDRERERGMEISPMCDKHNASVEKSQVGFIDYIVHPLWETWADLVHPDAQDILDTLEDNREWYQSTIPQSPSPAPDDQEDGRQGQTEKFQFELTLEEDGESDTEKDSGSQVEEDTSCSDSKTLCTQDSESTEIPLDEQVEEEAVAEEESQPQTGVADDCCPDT
The experiment can be described thus: Activation of PDE4D3 (phosphodiesterase). In kind it is functional.

pEC50: −log10 of the molar value.

In turn, `CCCCCCCC/C=C/CCCCCCCC(=O)OCC(COP(=O)(O)O)OC(=O)CCCCCCCCCCCNC(=O)c1c(F)c(F)c(N=[N+]=[N-])c(F)c1F` (stereo not drawn) showed a pEC50 of 4.63.

As to `CCCCCCCC/C=C/CCCCCCCC(=O)OC(COC(=O)CCCCCCCCCCCNC(=O)c1c(F)c(F)c(N=[N+]=[N-])c(F)c1F)COP(=O)(O)O` (stereo not drawn), the negative-log EC50 (pEC50) was 4.63.

`CCCCCCCCCCCCCCCC(=O)OCC(COP(=O)(O)O)OC(=O)CCCCCCCCCCCNC(=O)c1c(F)c(F)c(N=[N+]=[N-])c(F)c1F` (stereo not drawn) showed a pEC50 of 4.62.

For orientation: pEC50 means the negative decadic logarithm of the EC50, by convention in mol/L. High values mean a small EC50, low ones a large EC50.

(Values after ChEMBL document CHEMBL1135919, “Synthesis of photoreactive phosphatidic acid analogues displaying activatory properties on cyclic AMP-phosphodiesterases. Photoaffinity labeling of an isoform of phosphodiesterase” (J Med Chem, 2002).)
